Assay results published in PubChem BioAssay AID504555 (Johns Hopkins Ion Channel Center, 2011).
Activity calls are given as the source filed them.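 The calls were made as follows: active = dose dependent inhibition of hERG heart potassium channel current within the tested dose range; inactive = the rest.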

How the values were obtained:
[1] = target: Voltage-gated inwardly rectifying potassium channel KCNH2 (Homo sapiens) (UniProt Q12809); experiment: hERG current block potency – CHO cells, automated electrophysiology, selectivity assay for Kir2.1 inhibitor project, SAR follow-up (AID 504555); details: automated patch clamp, tail current
Sequence of Voltage-gated inwardly rectifying potassium channel KCNH2 (Homo sapiens) (Q12809 whole entry, looked up): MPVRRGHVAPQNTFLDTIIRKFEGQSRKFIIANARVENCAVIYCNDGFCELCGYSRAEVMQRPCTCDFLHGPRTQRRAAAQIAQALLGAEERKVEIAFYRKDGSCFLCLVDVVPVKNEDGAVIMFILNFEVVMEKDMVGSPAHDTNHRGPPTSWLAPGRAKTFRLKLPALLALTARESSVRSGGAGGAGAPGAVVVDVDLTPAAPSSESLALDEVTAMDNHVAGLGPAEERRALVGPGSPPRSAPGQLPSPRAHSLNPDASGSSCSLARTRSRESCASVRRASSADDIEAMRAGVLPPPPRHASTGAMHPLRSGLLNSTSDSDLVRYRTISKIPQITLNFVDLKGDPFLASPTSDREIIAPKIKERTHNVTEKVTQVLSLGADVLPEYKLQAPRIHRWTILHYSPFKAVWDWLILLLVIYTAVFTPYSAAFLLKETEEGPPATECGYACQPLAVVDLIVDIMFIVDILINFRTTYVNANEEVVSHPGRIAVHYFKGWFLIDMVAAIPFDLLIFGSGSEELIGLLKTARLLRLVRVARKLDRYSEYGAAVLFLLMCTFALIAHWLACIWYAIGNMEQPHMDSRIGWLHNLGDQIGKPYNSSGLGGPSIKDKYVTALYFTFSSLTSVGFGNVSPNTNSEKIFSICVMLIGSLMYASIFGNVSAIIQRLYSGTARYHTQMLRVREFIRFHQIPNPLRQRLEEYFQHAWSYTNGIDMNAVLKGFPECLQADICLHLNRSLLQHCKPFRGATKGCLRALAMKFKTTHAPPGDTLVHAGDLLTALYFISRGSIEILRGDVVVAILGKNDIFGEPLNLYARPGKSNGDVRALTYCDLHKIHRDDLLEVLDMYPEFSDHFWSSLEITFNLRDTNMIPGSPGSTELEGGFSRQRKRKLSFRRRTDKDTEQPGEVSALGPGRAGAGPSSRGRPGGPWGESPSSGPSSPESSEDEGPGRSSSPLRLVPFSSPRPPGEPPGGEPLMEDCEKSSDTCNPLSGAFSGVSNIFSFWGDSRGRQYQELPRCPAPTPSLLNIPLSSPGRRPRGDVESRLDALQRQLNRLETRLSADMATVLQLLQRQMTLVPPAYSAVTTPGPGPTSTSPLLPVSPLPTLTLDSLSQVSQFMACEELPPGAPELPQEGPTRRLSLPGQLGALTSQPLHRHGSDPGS

[2] = target: Inward rectifier potassium channel 2 (Mus musculus) (UniProt P35561); experiment: as above; details: automated patch clamp, tail current, at 30 µM (top of the series)
Sequence of Inward rectifier potassium channel 2 (Mus musculus) (P35561 whole entry, looked up): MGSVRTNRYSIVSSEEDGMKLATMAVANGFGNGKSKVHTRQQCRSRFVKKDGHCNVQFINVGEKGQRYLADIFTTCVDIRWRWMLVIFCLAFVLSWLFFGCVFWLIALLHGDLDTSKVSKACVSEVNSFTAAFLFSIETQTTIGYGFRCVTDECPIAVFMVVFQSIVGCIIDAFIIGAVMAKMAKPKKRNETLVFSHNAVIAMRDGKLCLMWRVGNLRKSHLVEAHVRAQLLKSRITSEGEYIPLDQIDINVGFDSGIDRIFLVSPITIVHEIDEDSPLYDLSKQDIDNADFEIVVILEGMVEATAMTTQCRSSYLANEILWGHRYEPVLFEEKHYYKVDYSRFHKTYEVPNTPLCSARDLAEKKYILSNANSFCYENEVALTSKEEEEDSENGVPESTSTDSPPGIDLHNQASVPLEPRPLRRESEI

Cc1ccc2nc(N3CCN(CCO)CC3)nc(-c3ccccc3)c2c1
IC50 [1]: 2.9 µM

Cc1ccc(Nc2cc(C)nc3c(C)cccc23)cc1
IC50 [1]: 2.33 µM

C[C@@H](NS(=O)(=O)c1ccc(Cl)cc1)c1ccccc1
IC50 [1]: 19.5 µM

C[C@@H](NS(=O)(=O)c1cccc(Br)c1)c1ccccc1
IC50 [1]: 17.6 µM

Cc1ccc(S(=O)(=O)N[C@@H](C)c2ccccc2)cc1
IC50 [1]: 27.6 µM

Cc1ccc(C)c(OCCCNCc2ccccc2)c1
IC50 [1]: 19.3 µM

Cc1noc(C)c1COC(=O)CCN1c2ccccc2Sc2ccccc21
IC50 [1]: 29.1 µM

CC(O)CNCCCOc1cccc(Oc2ccccc2)c1 (centres undefined)
IC50 [1]: 6.96 µM

O=S(=O)(c1ccc(F)cc1)N1CCCc2ccccc21
current change, negative = inhibition [2]: inactive

c1ccc(COc2ccc(OCCCNC3CCCC3)cc2)cc1
IC50 [1]: 2.19 µM

Cc1ccc2nc(NCc3ccccc3)[nH]c2c1
IC50 [1]: 13 µM

c1ccc(CNc2c3ccccc3nc3ccccc23)cc1
IC50 [1]: 0.433 µM

C[C@H](NS(=O)(=O)c1cccc(Br)c1)c1ccccc1
IC50 [1]: 10.2 µM

C[C@H](NS(=O)(=O)c1ccc(Br)cc1)c1ccccc1
IC50 [1]: 17.6 µM
